# Literature values in publication PMC6245954 (European journal of medicinal chemistry, 2018).
# What was measured:
# [1] = tested on: two prostate cancer xenografts; conditions: even at the highest dose (0.73 mmol/kg); cited from earlier work
# [2] = in words; cited from earlier work
# prostate cancer = conditions: cited from earlier work
smiles,measurement,setting,value
"COc1cc(-c2oc3ccccc3c(=O)c2O)cc(OC)c1OC [Compd 3, 3′,4′,5′-trimethoxyflavonol]",in vivo antitumor efficacy,[1],very moderate
same,bioavailability,[2],poor bioavailability
same,fold greater potency than quercetin (1) and fisetin (2),prostate cancer,5- to 16 fold
